Measurements as given in patent publication US4758586A, “Indolyl compounds and hyposensitivity use thereof” (USV Pharmaceutical Corp., priority 1986, dated 1988).
Like-named read-outs stand apart in the source and are kept apart here.

Columns and labels:
[1] = system: leukotriene C4 -induced contraction of guinea pig peripheral strips; assay: SRS-A antagonists (SALTI): leukotriene C4-induced contraction of guinea pig peripheral lung strips
Description: Protocol for SRS-A (Slow-reacting Substance of Anaphylaxis Antagonists (SALTI)
Peripheral strips of guinea pig lungs are prepared and hung in tissue baths (Metro #ME-5505, 10 ml) according to the published procedure (Pro. Nat'l. Acad. Sci., U.S.A. Volume 77, pp. 4354-4358, 1980). The strips are thoroughly rinsed in Assay Buffer and then connected with surgical silk thread to the support rods from the tissue baths. The rods are adjusted in the baths and the strips connected to the pressure transducers (Grass FT 103 or Gould UC-3). The tissue baths are aerated with 95% oxygen 5% carbon dioxide and maintained at 37° C. The Assay Buffer has been made as follows: For each liter of buffer the following are added to approximately 800 ml of water distilled in glass--6.87 g. NaCl, 0.4 g. KCl, […]. NaHCO3, 0.14 g. NaH2 PO4.H2 O, 0.21 g. MgSO4.7H2 O, and 2.0 g. D-glucose. Then a solution of 0.368 g. CaCl2.2H2 O in 100 ml glass-distilled water is slowly added to the buffer. Sufficient water is added to adjust the volume to one liter, and the solution is aerated with 95% oxygen--5% carbon dioxide. Usually 10 liters of buffer are used for an experiment with 4 tissues.
After the tissues have been repeatedly washed and allowed to equilibrate in the tissue bath, they are challenged with 1 μM histamine. After maximum contractions have been obtained, the tissues are washed, and allowed to relax back to baseline tension. This histamine challenge procedure is repeated at least 1 to 2 more times to obtain a repeatable control response. The average response to 1 μM histamine for each tissue is used to normalize all other challenges.
Responses of each tissue to a predetermined concentration of leukotriene are then obtained. Usually test compounds are examined initially at 30 μM on resting tension of the tissues without any added agonist or antagonist to determine if the compound has any possible intrinsic activity. The tissues are washed, and the test compound is added again. Leukotriene is added after the desired pre-incubation time. The intrinsic activity of the compounds, and their effect on leukotriene-induced contractions are then recorded.
The concentration required for 50% inhibition of 0.2 μM leukotriene C4 -induced contraction of guinea pig peripheral strips for representative compounds of the present invention is shown in Table 3.

[2] = biological target: T1, 5-lipoxygenase (Rattus norvegicus, UniProt P12527); assay: Protocol for detecting inhibitors of the lipoxygenase pathway (5-HETE formation in rat neutrophils); assay type: cell-based
T1 construct: A suspension of rat neutrophils in buffer; endogenous in cells; host or cells: rat neutrophils (PMN)
T1 sequence (P12527 1-673): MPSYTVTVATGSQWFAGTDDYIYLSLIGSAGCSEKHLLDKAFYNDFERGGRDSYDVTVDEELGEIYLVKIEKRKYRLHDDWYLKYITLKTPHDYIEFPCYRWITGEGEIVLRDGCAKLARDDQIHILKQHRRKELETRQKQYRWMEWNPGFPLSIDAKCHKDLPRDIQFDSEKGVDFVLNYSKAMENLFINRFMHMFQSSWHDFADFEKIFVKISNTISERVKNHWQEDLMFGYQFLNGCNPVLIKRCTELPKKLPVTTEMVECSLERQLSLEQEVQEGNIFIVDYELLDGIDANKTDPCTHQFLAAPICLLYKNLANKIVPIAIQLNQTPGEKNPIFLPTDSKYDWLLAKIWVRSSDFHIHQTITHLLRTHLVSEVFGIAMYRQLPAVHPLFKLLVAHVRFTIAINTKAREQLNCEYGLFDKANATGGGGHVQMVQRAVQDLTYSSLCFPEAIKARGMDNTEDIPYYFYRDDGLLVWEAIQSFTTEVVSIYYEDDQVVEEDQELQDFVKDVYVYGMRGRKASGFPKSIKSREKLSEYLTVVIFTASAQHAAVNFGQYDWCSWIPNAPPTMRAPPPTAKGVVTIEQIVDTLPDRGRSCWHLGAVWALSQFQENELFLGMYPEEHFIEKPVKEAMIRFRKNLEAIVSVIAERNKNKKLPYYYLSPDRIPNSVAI
Description: Protocol for Detecting Inhibitors of the Lipoxygenase Pathway
A suspension of rat neutrophils in buffer is incubated for 3 minutes at 30° C. with [^14 C]-arachidonic acid (AA) and Calcium Ionophore A23187. Citric acid (2M) is used to quench the reaction. Following the addition of a trace amount of (^3 H)-5-HETE together with an excess of unlabeled 5-HETE to each tube, the mixture is extracted with chloroform/methanol. The organic layer is washed with dilute acid and an aliquot is transferred to glass tubes and dried. The residue is dissolved in a small volume of chloroform and an aliquot is spotted on silica get TLC sheets, which are developed with an ethyl acetate/isooctane/water acetic acid solvent system. The 5-HETE spots are visualized with iodine, cut out and placed in scintillation vials for counting. After adjusting for the extraction efficiency, the amount (pmole) of [^14 C]-5-HETE in each of the tubes is quantitated. The net pmoles of 5-HETE are obtained by subtracting the pmoles of 5-HETE in the tubes containing […]. The ability of the test compounds to modulate the activity of this enzyme is determined by a decrease or increase in the net amount of 5-HETE produced.

[3] = biological target: T2, Phospholipase A2 (PLA2) (Rattus norvegicus, UniProt P14423); assay: In vitro assay for inhibitors of Phospholipase A2 (PLA2) from rat platelets; assay type: biochemical
T2 construct: obtained by aggregation of purified rat platelets; from tissue; host or cells: rat platelets (enzyme obtained by aggregation)
T2 sequence (P14423 22-146): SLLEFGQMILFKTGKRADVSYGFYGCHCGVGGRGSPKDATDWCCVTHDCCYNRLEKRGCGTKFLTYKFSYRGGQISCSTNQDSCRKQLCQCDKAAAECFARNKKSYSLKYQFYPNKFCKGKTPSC
Description: B. In Vitro Assay For Inhibitors of Phospholipase A2 Assayed at pH 7.0 (PLA2)
The PLA2 employed in this screen is obtained by aggregation of purified rat platelets. In the enzyme assay phosphatidylcholine having ^14 C-labeled palmitate residues at R1 and R2 is employed as substrate. PLA2 acts by cleaving the R2 fatty acid ester bond yielding free fatty acid and lysophosphatidyl choline as follows: [drawing 19]
Following completion of the reaction, the assay medium is acidified and extracted with hexane, which takes up unreacted substrate and free fatty acid product. The hexane extract is passed over a short silica column which retains 99% of the phosphatidyl choline. The ^14 C-labeled palmitic acid is not retained (90% recovery in eluate) and is collected directly in scintillation counting vials. The released palmitic acid is conveniently quantitated by liquid scintillation spectrometry.
The compounds were tested at 100 uM in a buffer containing 0.3 mM unlabeled phosphatidylcholine (PC), 20-30,000 cpm of ^14 C(CPC), […], 1 mM CaCl2 and 50 mM tris-HCl adjusted to pH 7.2 with 1N NaOH. […] The temperature of the buffer was maintained at a temperature of 37° C. The reaction was initiated by addition of the enzyme and it was terminated 30 minutes later by the addition of […] of 1N HCl.
Following acidification, the samples were extracted with 2 ml of 2-propanol and 2 ml of hexane, vortexed and allowed to stand until the phases separated. Free fatty acids (FFA) and some unreacted substrate were taken up in the isopropanol-saturated hexane. The hexane phase of the extraction mixture was transferred to a short silica gel column which retained […] but not the FFA. The column effluent was collected directly in scintillation vials. The columns were washed once with an additional 2 ml of hexane. The radio labeled FFA were quantitated by liquid scintillation spectrometry.

[4] = system: Phospholipase C (PLC); assay: In vitro assay for inhibitors of Phospholipase C (PLC) from rat platelets; assay type: biochemical; settings: at level tested (300 u)
Description: A. Protocol For In Vitro Assay For Inhibitors Of Phospholipase C (PLC)
The PLC employed in this screen is obtained by aggregation of purified rat platelets in the presence of CaCl2 and ADP. In the enzyme assay phosphatidylinositol having ^3 H -labeled arachidonate residues at R2 is employed as substrate. PLC acts by cleaving the phosphate ester bond yielding diglyceride as follows: [drawing 18]
Following completion of the reaction, the assay medium is acidified and extracted with hexane which takes up unreacted substrate and diglyceride. The hexane extract is passed over a short silica gel column which retains 99% of the phosphatidylinositol. The ^3 H-labeled diglyceride is not retained […]. The diglyceride is conveniently quantitated by liquid scintillation spectrometry.
The compounds were tested at 300 u in a buffer containing 0.06 mM unlabeled phosphatidylcholine (PC), 20-30,000 cpm of (CPC), 150 mM NaCl, 5 mM CaCl2 and 50 mM tris(hydroxymethyl)methylaminopropanesulfonic acid buffer, adjusted to pH 9.0 with 1N NaOH. The temperature of the buffer was maintained at a temperature of 37° C. The reaction was initiated by addition of the enzyme and it was terminated 10 minutes later by addition of 1 ml of 1N HCl.
Following acidification, the samples were extracted with 2 ml of isopropyl alcohol and 2 ml of hexane, vortexed and allowed to stand until the phases separate. […] and some unreacted substrate were taken up in the isopropanol-saturated hexane. The hexane phase of the extraction mixture was transferred to a short silica gel column which retains unreacted phosphatidylinositol, but not the 3H-diglyceride. The column effluent was collected directly in scintillation vials. The columns were washed once with additional 2 ml of hexane. The radiolabelled diglycerides were quantitated by liquid scintillation.

[5] = rat PMN, [14C]-arachidonic acid + A23187, 5-HETE, read-out: LOX, (RAT PMN) I50
[6] = Formula III, n=1 compounds, read-out: LOX I50 (Table 5)
[7] = Cavia porcellus, 0.2 μM leukotriene C4-induced contraction, read-out: SALTI, I50 μM
[8] = read-out: PLA2, inhibition level reached at 30 μM (Ixx = 30 μM)
[9] = Cavia porcellus, leukotriene-induced contraction, read-out: SALTI I50 (Table 5)

With CCOC(=O)C=Cc1cn(Cc2ccccc2)c2ccccc12 [Ethyl-B-(benzylindol-3-yl)acrylate, reference compound] the “SALTI activity class (Table 5)” value ([1]; at level tested (initially 30 μM)) was “I”.
CCOC(=O)C=CC=Cc1cn(Cc2ccccc2)c2ccc(OC)cc12 [Example 6, Ethyl 5-(1-Benzyl-5-Methoxyindol-3-yl)-2,4-Pentadienoate] gave an IC50 [2, 5] of 4 µM.
With O=C(O)C=CC=Cc1cn(Cc2ccccc2)c2ccccc12 [Example 2, 5-(1-Benzylindol-3-yl)-2,4-Pentadienoic Acid] the IC50 [3] was 16 µM and the IC50 [2, 5] was 2 µM.
In the case of O=C(O)C=CC=Cc1cn(Cc2ccccc2)c2ccc(OCc3ccccc3)cc12 [Example 5, 5-(1-Benzyl-5-Benzyloxyindol-3-yl)-2,4-Pentadienoic Acid], the IC50 [2, 5] is reported as 2 µM.
CCOC(=O)c1ccc(NC(=O)C=CC=Cc2cn(Cc3ccccc3)c3ccccc23)cc1 [Example 3, N-(4-Carbethoxyphenyl)-5-(1-benzylindol-3-yl)-2,4-Pentadienamide] showed an IC50 [2, 5] of 2 µM.
For CCOC(=O)C=CC=Cc1cn(Cc2ccccc2)c2ccccc12 [Example 1, Ethyl 5-(1-Benzylindol-3-yl)-2,4-Pentadienoate], the IC50 [2, 5] was 10 µM.
With CCOC(=O)C=CC=Cc1cc2cc(OC)ccc2n1C(=O)c1ccc(Cl)cc1 [Example 17, Ethyl 5-(1-p-chlorobenzoyl-5-methoxyindol-2-yl)-2,4-Pentadienoate] the IC50 [2, 5] was 10 µM.
CCOC(=O)C=Cc1c(C)n(Cc2ccccc2)c2ccccc12 [Ethyl B-(1-benzyl-2-methyl-indol-3-yl)acrylate] was tested, and the IC50 [2, 6] was 1 µM and the “PLC activity class (Table 5)” value [4] was “I”.
CCOC(=O)C=CC=Cc1cc2cc(OC)ccc2[nH]1 [Example 16, Ethyl 5-(5-methoxyindol-2-yl)-2,4-Pentadienoate] showed an inhibition at 30 µM ([1]; Cavia porcellus, at 30 μM, 0.2 μM leukotriene C4-induced contraction, read-out: SALTI, % I at 30 μM) of 53% and an IC50 [2, 5] of 10 µM.
CCOC(=O)C=Cc1c[nH]c2ccccc12 [Ethyl β-(indol-3-yl)acrylate, reference compound] was tested, and the “PLA2 activity class (Table 5)” value ([3]; at level tested (100 uM)) was “I”, the IC50 [2, 6] was 8 µM and the “PLC activity class (Table 5)” value [4] was “I”.
COc1ccc2c(c1)c(C=CC=CC(=O)O)cn2Cc1ccccc1 [Example 7, 5-(1-Benzyl-5-methoxyindol-3-yl)-2,4-Pentadienoic Acid] was tested, and the IC50 [1, 7] was 20 µM, the inhibition at 30 µM [3, 8] was 42% and the IC50 [2, 5] was 6 µM.
In the case of OCC=Cc1cn(Cc2ccccc2)c2ccccc12 [Example 13, 1-Benzyl-3-(3-Hydroxy-1-Propen-1-yl)Indole], the IC50 [2, 5] is reported as 7.5 µM.
For CCOC(=O)C=Cc1cc2ccccc2[nH]1 [Ethyl B-(indol-2-yl)acrylate], the IC50 [1, 9] was 30 µM and the “PLC activity class (Table 5)” value [4] was “I”.
In the case of CCOC(=O)C=CC=Cc1cn(Cc2ccccc2)c2ccc(OCc3ccccc3)cc12 [Example 4, Ethyl 5-(1-Benzyl-5-Benzyloxyindol-3-yl)-2,4-Pentadienoate], the inhibition at 30 µM [3, 8] is reported as 37%.
With O=C(O)C=Cc1cn(Cc2ccccc2)c2ccccc12 [B-(1-Benzylindol-3-yl)acrylic acid] the inhibition at 30 µM ([3]; read-out: PLA2, inhibition level reached at 30 μM (printed I44 = 30 μM, Table 5)) was 44%.
For CCOC(=O)C=CC=Cc1c[nH]c2ccccc12 [Example 10, Ethyl 5-(indol-3-yl)-2,4-Pentadienoate], the IC50 [1, 7] was 2 µM and the IC50 [2, 5] was 12 µM.
Work on CCOC(=O)C=CC=Cc1c(C)n(Cc2ccccc2)c2ccccc12 [Example 11, Ethyl 5-(1-Benzyl-2-methylindol-3yl)-2,4-Pentadienoate] yielded an IC50 [2, 5] of 15 µM.
Work on Cc1c(C=CC(=O)O)c2ccccc2n1Cc1ccccc1 [B-(1-Benzyl-2-methyl-indol-3-yl)acrylic acid] yielded an IC50 [1, 9] of 20 µM.
